Assay results taken from US9067920B2, “Compounds useful for inhibiting Chk1” (Eli Lilly and Company, priority 2010, dated 2015).
pEC50: −log10 of the molar value.

Target: T1, Chk1 (Homo sapiens, UniProt O14757)
T1 sequence (O14757 1-476): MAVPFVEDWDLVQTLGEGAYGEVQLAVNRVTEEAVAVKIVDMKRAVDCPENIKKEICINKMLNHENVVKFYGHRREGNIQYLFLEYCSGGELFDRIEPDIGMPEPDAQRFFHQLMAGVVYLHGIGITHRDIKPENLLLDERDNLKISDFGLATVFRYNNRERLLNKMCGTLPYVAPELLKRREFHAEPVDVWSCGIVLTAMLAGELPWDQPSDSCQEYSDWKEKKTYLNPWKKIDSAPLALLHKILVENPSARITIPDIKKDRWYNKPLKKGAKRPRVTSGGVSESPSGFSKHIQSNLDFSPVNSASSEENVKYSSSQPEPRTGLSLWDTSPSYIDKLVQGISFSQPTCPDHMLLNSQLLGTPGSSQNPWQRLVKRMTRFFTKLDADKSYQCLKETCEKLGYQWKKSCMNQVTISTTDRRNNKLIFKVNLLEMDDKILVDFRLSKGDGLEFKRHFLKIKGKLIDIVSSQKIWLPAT
Experiment: Chk1 autophosphorylation cell based assay (phospho-Chk1 serine 296 immunoblot, doxorubicin-treated HeLa cells)
Design: endogenous in cells; host or cells: HeLa
Conditions: 100 nM doxorubicin, 2 h compound, read-out: EC50 (inhibition of doxorubicin induced Chk1 autophosphorylation)
Procedure: An inhibitor of Chk1 will prevent the kinase activity of the protein from phosphorylating substrates in cells in which the DNA damage response has been activated. An easily detectable substrate for Chk1 is an autophosphorylation site on Chk1 itself, serine 296. The following immunoblot assay can be used to measure the amount of phosphorylation of serine 296 on Chk1 and indirectly the activity level of the Chk1 protein kinase, HeLa cells are cultured in MEM w/Earle's Balanced Salt Solution with L-glutamine supplemented with 10% (v/v) heat inactivated fetal bovine serum, 1×MEM non-essential amino acids, 1× sodium pyruvate and 1×10^5 cells plated in 600 μL of MEM culture media per well of a […] cell culture plate. Cells are incubated for 24 h at 37° C., 5% CO2 and […]. Sixteen μL of a 4 μM stock of doxorubicin in culture media are added to each appropriate well to make a final concentration of 100 nM doxombicin. Plates are returned to the incubator for 24 additional hours prior to Chk1 inhibitor compound addition. […] Antigen-antibody-reporter conjugates immobilized on the membrane are detected with the Super Signal Western Femto HRP-detection reagent using a FUJI LAS-4000 imaging system. Phospho-Chk1 (ser296) band intensities are calculated using “Total Lab” software (Nonlinear Dynamics). […]

COc1nc(C)ccc1-c1cc(Nc2cncc(O[C@@H]3CCCNC3)n2)[nH]n1 [Example 1, (R)-[5-(2-Methoxy-6-methyl-pyridin-3-yl)-2H-pyrazol-3-yl]-[6-(piperidin-3-yloxy)-pyrazin-2-yl]-amine]
pEC50: > 9.00
